From ChEMBL document CHEMBL2417517, “Isolation, structures, and biological activities of triterpenoids from a Penares sp. marine sponge” (J Nat Prod, 2013)

Tested on: HL-60
Assay: Cytotoxicity against human HL60 cells after 46 hrs by MTS assay
Format: functional, cell-based
Conditions: HL-60, 46 h

`CC(C)=CCC[C@@H](C)[C@H]1CC[C@]23C(=O)O[C@]4(CC[C@]12C)C3=CC[C@H]1C(C)(C)[C@@H](O)CC[C@@]14C` gave an IC50 of 9.7 µM.
